Assay results as given in ChEMBL document CHEMBL4028815, “Novel phosphonate analogs of sulforaphane: Synthesis, in vitro and in vivo anticancer activity” (Eur J Med Chem, 2017).
Activity calls are given as the source filed them. No cut-off for these calls is given here.

Key:
Mus musculus [1] = assay: Toxicity in BALB/c mdb mouse implanted with mouse 4T1 cells assessed as serum creatinine level at 300 umol/kg, ip administered five times weekly measured at 29 day post cell innoculum (reference value: 9.3 +/- 1.2 umol/L); type: organism-based; conditions: in vivo, 696 h
LoVo [2] = assay: Induction of apoptosis in human LoVo cells assessed as increase in caspase3/7 activity at 15 uM using Ac-DEVD-ACC as substrate pretreated for 24 hrs followed by substrate addition measured for 2 hrs by fluorescence assay relative to control; type: functional
Mus musculus [3] = assay: Hepatotoxicity in BALB/c mdb mouse implanted with mouse 4T1 cells assessed as liver weight at 300 umol/kg, ip administered five times weekly measured at 29 day post cell innoculum (reference value: 1.2 +/- 0.13 g); type: toxicity, organism-based; conditions: in vivo, 696 h
A549 = assay: Cytotoxicity against human A549 cells after 72 hrs by sulforhodamine B assay; type: functional, cell-based; conditions: A549, 72 h
[4] = Resistance index, ratio of IC50 for human HL60/MX2 cells to IC50 for human HL60 cells; type: functional
[5] = Resistance index, ratio of IC50 for human LoVo/DX cells to IC50 for human LoVo cells; type: functional
Mus musculus [6] = assay: Toxicity in BALB/c mdb mouse implanted with mouse 4T1 cells assessed as RBC level at 300 umol/kg, ip administered five times weekly measured at 29 day post cell innoculum (reference value: 8.6 +/- 0.9 10^6/uL); type: organism-based; conditions: in vivo, 696 h
LoVo [7] = assay: Induction of apoptosis in human LoVo cells assessed as loss of mitochondrial membrane potential at 15 uM after 24 hrs by JC-1 staining based flow cytometric method relative to control; type: functional
LoVo/DX [8] = assay: Induction of apoptosis in human LoVo/DX cells assessed as increase in caspase3/7 activity at >15 uM using Ac-DEVD-ACC as substrate pretreated for 24 hrs followed by substrate addition measured for 2 hrs by fluorescence assay; type: functional, cell-based
LoVo [9] = assay: Potency index, ratio of benzyl isothiocyanate IC50 to compound IC50 for human LoVo cells; type: functional
LoVo [10] = assay: Potency index, ratio of sulforaphane IC50 to compound IC50 for human LoVo cells; type: functional
LoVo [11] = assay: Induction of apoptosis in human LoVo cells assessed as increase in early apoptotic cells at 15 uM after 24 hrs by APC-Annexin-V/propidium iodide staining based flow cytometric method relative to control; type: functional
Mus musculus [12] = assay: Toxicity in BALB/c mdb mouse implanted with mouse 4T1 cells assessed as hematocrit at 300 umol/kg, ip administered five times weekly measured at 29 day post cell innoculum (reference value: 39.9 +/- 3.7 %); type: organism-based; conditions: in vivo, 696 h
Mus musculus [13] = assay: Toxicity in BALB/c mdb mouse implanted with mouse 4T1 cells assessed as serum ALT level at 300 umol/kg, ip administered five times weekly measured at 29 day post cell innoculum (reference value: 23.8 +/- 2.2 U/L); type: organism-based; conditions: in vivo, 696 h
MES-SA = assay: Cytotoxicity against human MESSA cells after 72 hrs by sulforhodamine B assay; type: functional, cell-based
LoVo [14] = assay: Induction of apoptosis in human LoVo cells assessed as increase in caspase3/7 activity at >15 uM using Ac-DEVD-ACC as substrate pretreated for 24 hrs followed by substrate addition measured for 2 hrs by fluorescence assay; type: functional, cell-based
[15] = Induction of apoptosis in human LoVo/DX cells assessed as loss of mitochondrial membrane potential at 15 uM after 24 hrs by JC-1 staining based flow cytometric method relative to control; type: functional
Mus musculus [16] = assay: Toxicity in BALB/c mdb mouse implanted with mouse 4T1 cells assessed as serum urea level at 300 umol/kg, ip administered five times weekly measured at 29 day post cell innoculum (reference value: 3.8 +/- […]); type: organism-based; conditions: in vivo, 696 h
MES-SA/Dx5 = assay: Cytotoxicity against human MESSA/DX5 cells after 72 hrs by sulforhodamine B assay; type: functional, cell-based; conditions: MES-SA/Dx5, 72 h
LoVo [17] = assay: Induction of apoptosis in human LoVo cells assessed as late apoptotic cells at 15 uM after 24 hrs by APC-Annexin-V/propidium iodide staining based flow cytometric method relative to control; type: functional
LoVo [18] = assay: Induction of apoptosis in human LoVo cells assessed as necrotic cells at 15 uM after 24 hrs by APC-Annexin-V/propidium iodide staining based flow cytometric method (reference value: 10%); type: functional
LoVo/DX [19] = assay: Cell cycle arrest in human LoVo/DX cells at 15 uM after 24 hrs by propidium iodide staining based flow cytometric method; type: functional
Mus musculus [20] = assay: Toxicity in BALB/c mdb mouse implanted with mouse 4T1 cells assessed as spleen weight at 300 umol/kg, ip administered five times weekly measured at 29 day post cell innoculum (reference value: 0.603 +/- 0.133 g); type: organism-based; conditions: in vivo, 696 h
LoVo [21] = assay: Cytotoxicity against human LoVo cells assessed as cell death at >15 uM after 24 hrs; type: cell-based
LoVo/DX [22] = assay: Induction of apoptosis in human LoVo/DX cells assessed as late apoptotic cells at 15 uM after 24 hrs by APC-Annexin-V/propidium iodide staining based flow cytometric method relative to control; type: functional
BALB/3T3 = assay: Cytotoxicity against mouse BALB/3T3 cells after 72 hrs by sulforhodamine B assay; type: cell-based; conditions: BALB/3T3, 72 h
Mus musculus [23] = assay: Toxicity in BALB/c mdb mouse implanted with mouse 4T1 cells assessed as serum AST level at 300 umol/kg, ip administered five times weekly measured at 29 day post cell innoculum (reference value: 136 +/- 10.3 U/L); type: organism-based; conditions: in vivo, 696 h
[24] = Cytotoxicity against human LoVo/DX cells after 72 hrs by sulforhodamine B assay; type: functional, cell-based
Mus musculus [25] = assay: Toxicity in BALB/c mdb mouse implanted with mouse 4T1 cells assessed as hemoglobin level at 300 umol/kg, ip administered five times weekly measured at 29 day post cell innoculum (reference value: 15.1 +/- 1.5 g/dl); type: organism-based; conditions: in vivo, 696 h
Mus musculus [26] = assay: Toxicity in BALB/c mdb mouse implanted with mouse 4T1 cells assessed as body weight loss at 300 umol/kg, ip administered five times weekly measured 3 times weekly during compound dosing; type: organism-based; conditions: in vivo
LoVo [27] = assay: Cytotoxicity against human LoVo cells after 72 hrs by sulforhodamine B assay; type: functional, cell-based
HL60/MX2 = assay: Cytotoxicity against human HL60/MX2 cells after 72 hrs by sulforhodamine B assay; type: functional, cell-based; conditions: HL60/MX2, 72 h
HL-60 = assay: Cytotoxicity against human HL60 cells after 72 hrs by sulforhodamine B assay; type: functional, cell-based; conditions: HL-60, 72 h
4T1 [28] = assay: Anti-tumor activity against mouse 4T1 cells implanted in BALB/c mdb mouse assessed as tumor growth inhibition at 300 umol/kg, ip administered five times weekly measured on day 29 post cell innoculum relative to control; type: functional; conditions: 4T1, ip, 696 h, read-out: TGI
4T1 [29] = assay: Anti-tumor activity against mouse 4T1 cells implanted in BALB/c mdb mouse assessed as tumor growth inhibition at 300 umol/kg, ip administered five times weekly measured on day 15 post cell innoculum relative to control; type: functional; conditions: 4T1, ip, 360 h, read-out: TGI
LoVo [30] = assay: Cell cycle arrest in human LoVo cells at 15 uM after 24 hrs by propidium iodide staining based flow cytometric method; type: functional
4T1 [31] = assay: Anti-tumor activity against mouse 4T1 cells implanted in BALB/c mdb mouse assessed as lung metastasis at 300 umol/kg, ip administered five times weekly measured at 29 days post cell innoculum (reference value: 56 +/- 25); type: functional
[32] = Induction of apoptosis in human LoVo/DX cells assessed as increase in caspase3/7 activity at 15 uM using Ac-DEVD-ACC as substrate pretreated for 24 hrs followed by substrate addition measured for 2 hrs by fluorescence assay relative to control; type: functional
Mus musculus [33] = assay: Nephrotoxicity in BALB/c mdb mouse implanted with mouse 4T1 cells assessed as kidney weight at 300 umol/kg, ip administered five times weekly measured at 29 day post cell innoculum (reference value: 0.136 +/- 0.006 g); type: toxicity, organism-based; conditions: in vivo, 696 h
Mus musculus [34] = assay: Toxicity in BALB/c mdb mouse implanted with mouse 4T1 cells assessed as serum PLT level at 300 umol/kg, ip administered five times weekly measured at 29 day post cell innoculum (reference value: 972 +/- 157 10^3/uL); type: organism-based; conditions: in vivo, 696 h
Mus musculus [35] = assay: Toxicity in BALB/c mdb mouse implanted with mouse 4T1 cells assessed as lung weight at 300 umol/kg, ip administered five times weekly measured at 29 day post cell innoculum (reference value: 0.2 +/- 0.018 g); type: organism-based; conditions: in vivo, 696 h
Mus musculus [36] = assay: Toxicity in BALB/c mdb mouse implanted with mouse 4T1 cells assessed as WBC level at 300 umol/kg, ip administered five times weekly measured at 29 day post cell innoculum (reference value: 212.3 +/- 82.8 10^3/uL); type: organism-based; conditions: in vivo, 696 h
[37] = Cytotoxicity against human LoVo/DX cells assessed as cell death at >15 uM after 24 hrs; type: cell-based
4T1 [38] = assay: Cytotoxicity against mouse 4T1 cells after 72 hrs by sulforhodamine B assay; type: functional, cell-based; conditions: 4T1, 72 h
Mus musculus [39] = assay: Toxicity in BALB/c mdb mouse implanted with mouse 4T1 cells assessed as body weight loss at 300 umol/kg, ip administered on day 14 post cell innoculum; type: organism-based; conditions: in vivo
Mus musculus [40] = assay: Toxicity in BALB/c mdb mouse implanted with mouse 4T1 cells assessed as body weight loss at 300 umol/kg, ip administered five times weekly measured on day 11 post cell innoculum; type: organism-based; conditions: in vivo

CC(C)OP(=O)(CCCCCCN=C=S)OC(C)C
Activity (Mus musculus [1]): 7.1 µmol/L
fold change (FC) (LoVo [2]): 3
Activity (Mus musculus [3]): 1.32 g
IC50 (A549): 10 µM
Ratio IC50 [4]: 1.4
Ratio IC50 [5]: 3.5
Activity (Mus musculus [6]): 10 ×10⁶ /uL
Activity (LoVo [7]): 35%
Activity (LoVo/DX [8]): inactive
Ratio IC50 (LoVo [9]): 5
Ratio IC50 (LoVo [10]): 10
Activity (LoVo [11]): inactive
Activity (Mus musculus [12]): 49.6%
Activity (Mus musculus [13]): 26.6 U/L
IC50 (MES-SA): 9.5 µM
Activity (LoVo [14]): inactive
Activity [15]: 35%
Activity (Mus musculus [16]): 4.7 mmol/L
IC50 (MES-SA/Dx5): 5.8 µM
Activity (LoVo [17]): Active
Activity (LoVo [18]): Active
Activity (LoVo/DX [19]): inactive
Activity (Mus musculus [20]): 0.535 g
Activity (LoVo [21]): Toxic
Activity (LoVo/DX [22]): Active
IC50 (BALB/3T3): 11.7 µM
Activity (Mus musculus [23]): 163.3 U/L
IC50 [24]: 9.4 µM
Activity (Mus musculus [25]): 18.2 g/dL
Activity (Mus musculus [26]): <= 10%
IC50 (LoVo [27]): 2.7 µM
IC50 (HL60/MX2): 4 µM
IC50 (HL-60): 2.9 µM
inhibition in vivo at 300 µmol/kg (4T1 [28]): -0.2%
inhibition in vivo at 300 µmol/kg (4T1 [29]): 40.4 to 41%
Activity (LoVo [30]): inactive
Activity (4T1 [31]): 49
fold change (FC) [32]: 2.2
Activity (Mus musculus [33]): 0.147 g
Activity (Mus musculus [34]): 767 ×10³ /uL
Activity (Mus musculus [35]): 0.222 g
Activity (Mus musculus [36]): 259.1 ×10³ /uL
Activity [37]: Toxic
IC50 (4T1 [38]): 2.5 µM

S=C=NCc1ccccc1 [BENZYL ISOTHIOCYANATE]
Activity (Mus musculus [1]): 9.7 µmol/L
fold change (FC) (LoVo [2]): 11
Activity (Mus musculus [3]): 1.21 g
Activity (Mus musculus [6]): 8.8 ×10⁶ /uL
Activity (LoVo [7]): 67.6%
Activity (LoVo [11]): 17.8%
Activity (Mus musculus [12]): 45.1%
Activity (Mus musculus [13]): 21.5 U/L
Activity [15]: 64.6%
Activity (Mus musculus [16]): 5.6 mmol/L
Activity (LoVo [17]): Active
Activity (LoVo [18]): Active
Activity (Mus musculus [39]): Non-Toxic
Activity (Mus musculus [20]): 0.428 g
Activity (LoVo/DX [22]): Active
Activity (Mus musculus [23]): 158.6 U/L
Activity (Mus musculus [25]): 16 g/dL
Activity (Mus musculus [40]): Toxic
inhibition in vivo at 300 µmol/kg (4T1 [28]): 26.8%
inhibition in vivo at 300 µmol/kg (4T1 [29]): 18.1%
Activity (LoVo [30]): Active
Activity (4T1 [31]): 36
fold change (FC) [32]: 9.4
Activity (Mus musculus [33]): 0.13 g
Activity (Mus musculus [34]): 871 ×10³ /uL
Activity (Mus musculus [35]): 0.245 g
Activity (Mus musculus [36]): 300.8 ×10³ /uL
